Data on five compounds can be found in US11298363B2, “Triazolobenzazepines as vasopressin V1a receptor antagonists” (RICHTER GEDEON NYRT., priority 2017, dated 2022).

Each structure is given as a SMILES string.

Data set [1] concerns the target mouse vasopressin V1a receptor (Mus musculus, UniProt Q62463). The data set can be described thus: Mouse vasopressin V1a receptor binding assay. Particulars: 1321N1 cell membranes; read-out: Ki (nM) on mV1a cell line. The source says:
Mouse Vasopressin V1a Receptor Binding Assay Cells and Radioligand
The immortalized 1321N1 cell line (B9/1321N1 clone) constitutively and stably expressing Mouse vasopressin V1a receptor vasopressin (8-L-Arginine), [Phenylalanyl-3,4,5-^3H(N)] labelled compound (Perkin Elmer Life and Analytical Sciences) as radioligand were used to determine the affinity of the prepared compounds.
Membrane-preparation: Membrane preparation of immortalized 1321N1 cells expressing the propagated mouse Vasopressin V1a receptor was made according to Jarvis's method (Jarvis et al., J Pharmacol Exp Ther […], 310:407-16). Cells were suspended in preparative buffer (50 mM Tris, 1 mM EDTA, 0.1 mM PMSF) and homogenized with glass homogenizing potter. To separate the raw membrane fraction two consecutive centrifugation procedures (40,000 g for 25 minutes at 4° C.) were executed, then the membrane was taken into the preparatory buffer during a final washing step, it was divided into aliquots which were stored at −80° C. until the time of measurement.
The protein content of the prepared membrane was determined according to Lowry's method using standard dilution line of bovine serum albumin (BSA) (Lowry et al., J Biol Chem 1951, 193:265-75).
To determine the final affinity value, the results of at least two independent experiments were taken into account.
Non-specific binding values were determined in the presence of an unlabeled 1.2×10^−6 M (Arg^8)-vasopressin. Samples were incubated in a total volume of 0.33 ml for 60 minutes at 27° C. Membrane-bound and free ligands were separated by filtration through a 0.5% polyethyleneimine-impregnated UniFilter® GF/B™ After drying the filter plates, 40 μl Microscint-20 (Packard) scintillation cocktail was added to the samples. Finally, radioactivity was measured using MicroBeta^2 Microplate Counter (Perkin Elmer).
The radioligand clamping ability of a substance is determined in at least two independent experiments. Specific radioligand binding can be defined as the difference between total and non-specific binding in the presence of a saturation amount of the unlabeled ligand or different concentrations of the substance to be tested. The results are given as a percentage of inhibition of the specific binding achieved in the presence of the substance to be tested.
The IC50 data (i.e. the concentration of the unknown substance which displaces 50% of specific bound radioligand) is calculated from the concentration-displacement curve using the sigmoid fitting mathematical method y=(A1−A2)/(1+(x/x0)p)+A2 with Origin 7.5. software (OriginLab Corporation, Northampton, USA). During fitting, the asymptotes are not fixed. The Ki values (inhibition constant) are given with Cheng-Prusoff equation Ki=IC50/[1+(L/KD)] wherein [L] is the radioligand concentration used in the experiment and [KD] is the affinity of the radioactively labelled ligand for the given receptor. The KD is determined beforehand using the Scatchard curve.

Data set [2] concerns the target T1, human vasopressin V1a receptor (Homo sapiens, UniProt P37288). The data set can be described thus: Human vasopressin V1a receptor binding assay. The conditions noted are these: 1321N1 cell membranes, [3H]vasopressin; read-out: Ki (nM) on hV1a cell line. The procedure, abridged:
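Ki values come from IC50 via Cheng-Prusoff (KD from prior Scatchard), averaged over at least two independent runs. Human V1a membranes were incubated with radioligand 60 minutes at 27° C., bound ligand collected by filtration; (Arg^8)-vasopressin at 1.2×10^−6 M defined non-specific binding.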

In data set [3] the test system is Prenatally valproate-treated rats. Nature of the data set: Prenatal valproate model of ASD, social approach avoidance paradigm. The class given is in vivo, rat. The conditions noted are these: VPA rats; for social approach avoidance active contact time: mean ± S.E.M.; for social approach avoidance % effect: VEH/VEH = 100%, VPA/VEH = 0%. On the procedure: (§1) The Prenatal Valproate Model of Autism Spectrum Disorder (ASD) in Rats
(§2) The prenatal valproate model has excellent construct and face validity, thus it is a widely accepted animal model of ASD (Christensen et al, JAMA 2013, 309:1696-1703; Roullet et al, Neurotoxicol Teratol. 2013, 36:45-56). In this model, time-mated female Wistar rats (Harlan, UK) were treated with single-dose of valproic acid (VPA, i.p. 600 mg/kg) on 12.5 days of pregnancy. After birth and separation, the examined male offsprings were kept under standard laboratory conditions until completion of the studies. Four animals were kept together in standard cages at 22-24° C. external temperature and in 12-12 hour light-dark cycle (07.30 a.m.-07.30 p.m.). Food and water were available ad libitum. After once daily treatment with the test substance for 7 days and pretreatment on the day of measurement, the behaviour of the rats was assessed in the social preference test on the 59th or 60th postnatal day. The social preference test is a largely accepted test method for determining the autistic behaviour of rodents (Nadler et al, Genes Brain Behav 2004, 3:303-314; Bambini-Junior et al, Brain Res 2011, 1408:8-16). The test consists of two paradigms, the first is the social approach avoidance test. In this paradigm the social behaviour of examined animals can be determined with a special three-chamber apparatus. In the apparatus, the contact behaviour of the conspecific and empty separated area surrounded with a perforated wall can be examined and compared. […] One day later, on the 60th postnatal day, rats were tested in the social memory and recognition paradigm. In this, the contact behaviour with a new, previously unknown conspecific can be measured compared to a familiar conspecific.

Data set [4] shares this test system. The data set can be described thus: Prenatal valproate model of ASD, social memory recognition paradigm. The data set is classed as in vivo, rat. The conditions noted are these: VPA rats; for social memory recognition active novelty contact time: mean ± S.E.M.; for social memory recognition % effect: VEH/VEH = 100%, VPA/VEH = 0%. On the procedure:
as §1, §2
Unexpectedly, the treatment reversed the value of VPA/VEH to the value of VEH/VEH treated animals.

Data set [5] has as its target T1, human vasopressin V1a receptor. The data set can be described thus: Functional assay on human vasopressin V1a receptor expressing cell line (intracellular Ca2+ fluorescence). The class given is cell-based. The conditions noted are these: 1321N1 cells, (Arg8)-vasopressin at EC80; read-out: IC50 (nM) on hV1a cell line.
Data set [6] deals with T2, V1aR (Homo sapiens, UniProt P37288). Particulars: cited from earlier work.
Target sequence in this assay (P37288 whole entry, species assumed): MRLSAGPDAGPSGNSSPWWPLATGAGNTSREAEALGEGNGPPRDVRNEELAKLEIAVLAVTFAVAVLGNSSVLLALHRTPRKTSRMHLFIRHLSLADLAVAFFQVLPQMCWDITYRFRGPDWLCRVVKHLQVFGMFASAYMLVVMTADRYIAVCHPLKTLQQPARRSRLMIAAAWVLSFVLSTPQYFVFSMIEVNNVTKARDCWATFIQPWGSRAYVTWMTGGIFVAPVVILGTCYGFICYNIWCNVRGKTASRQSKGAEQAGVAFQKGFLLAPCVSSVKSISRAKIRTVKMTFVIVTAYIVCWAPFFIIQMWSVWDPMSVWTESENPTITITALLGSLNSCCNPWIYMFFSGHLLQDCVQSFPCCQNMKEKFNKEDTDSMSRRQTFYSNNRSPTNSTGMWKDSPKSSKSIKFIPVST
Data set [7] addresses T2, V1aR. The conditions noted are these: humans, Phase 1; cited from earlier work.
Target sequence in this assay (P37288 whole entry): as the sequence (P37288 whole entry, species assumed) above
For data set [8] the following is noted: rats; cited from earlier work.
For a further data set, the target named is human V1a receptor (Homo sapiens, UniProt P37288). Particulars: cited from earlier work.
human V1a receptor, sequence (P37288 whole entry): as the sequence (P37288 whole entry, species assumed) above

T1 sequence (P37288 whole entry): as the sequence (P37288 whole entry, species assumed) above
mouse vasopressin V1a receptor, sequence (Q62463 whole entry): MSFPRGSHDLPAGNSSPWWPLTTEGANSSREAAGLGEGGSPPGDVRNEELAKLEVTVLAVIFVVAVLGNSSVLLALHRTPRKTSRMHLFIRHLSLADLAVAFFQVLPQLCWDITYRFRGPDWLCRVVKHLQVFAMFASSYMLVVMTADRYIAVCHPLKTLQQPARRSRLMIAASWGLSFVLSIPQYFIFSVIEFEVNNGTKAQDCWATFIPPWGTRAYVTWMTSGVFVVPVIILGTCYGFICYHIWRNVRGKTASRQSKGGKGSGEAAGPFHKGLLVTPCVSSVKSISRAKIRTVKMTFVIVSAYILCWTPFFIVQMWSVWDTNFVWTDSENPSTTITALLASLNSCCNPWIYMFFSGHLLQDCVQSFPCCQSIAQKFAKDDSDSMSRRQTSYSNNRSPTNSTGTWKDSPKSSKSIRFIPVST

`CC(C)N[C@@H]1Cc2cc(Cl)ccc2-n2c(nnc2[C@H]2CC[C@H](Oc3ccccn3)CC2)C1` [Example 26]: the inhibitory constant (Ki) was found to be 15 nM in data set [1] and 0.7 nM in data set [2]. Moreover, the “social approach avoidance active contact time” value was 71.2 ± 15.9 s in data set [3] (1.5 mg/kg i.p.), 116.4 ± 22.5 s in data set [3] (5 mg/kg i.p.) and 148.7 ± 8.3 s in data set [3] (15 mg/kg i.p.). Further, the “social approach avoidance % effect” value in data set [3] (1.5 mg/kg i.p.) came to 30%; in data set [3] (5 mg/kg i.p.), 75%; in data set [3] (15 mg/kg i.p.) it was 107%. Also, the “social memory recognition active novelty contact time” value stood at 83.7 ± 11.8 s in data set [4] (1.5 mg/kg i.p.), 133.5 ± 10.0 s in [4] (5 mg/kg i.p.) and 141.9 ± 9.1 s in [4] (15 mg/kg i.p.). Besides, the results for the “social memory recognition % effect” value in [4] (1.5 mg/kg i.p.), in [4] (5 mg/kg i.p.) and in data set [4] (15 mg/kg i.p.) were 66%, 115% and 124%, respectively. In addition, in data set [5], the IC50 amounted to 4.5 nM.

Consider `O=C(CCCCCCC(=O)Nc1ccccc1)NO` [SAHA, suberoil anilide, reference compound], for which, in [3] (5 mg/kg i.p.), the “social approach avoidance active contact time” value came to 156.0 ± 6.7 s and the “social approach avoidance % effect” value was 115%. Moreover, the “time spent with social seeking response / social behaviour” value in data set [3] (result in words) was “statistically significant increase”. In data set [4] (5 mg/kg i.p.), the “social memory recognition active novelty contact time” value came out at 155.5 ± 5.8 s and the “social memory recognition % effect” value stood at 137%. For the same compound, the “active time spent with seeking response towards new animal” value in data set [4] (result in words) was “statistically significant increase”.

Turning to `CN1Cc2cc(Cl)ccc2-n2c(nnc2C2CCN(c3ccccn3)CC2)C1` [PF-184563], on V1aR [6], the V1aR antagonism entry is listed as “efficient V1aR antagonists”.

For `CN(C)CCn1cc(C(=O)N2CCC3(CC2)OCc2ccccc23)c2ccc(Cl)cc21` [RO5028442], the “orientation of eye-gaze pattern” value on V1aR [7] is “positive effect”.

In the case of `CN(Cc1cccc(C(F)(F)F)c1)C(=O)[C@@H](CC(=O)N1CCC(N2CCCCC2)CC1)N1C(=O)[C@@H](N2C(=O)OC[C@@H]2c2ccccc2)[C@H]1/C=C/c1ccccc1` [SRX-251], in data set [8], the “brain level relative to effective concentrations detected in the binding assay” value is on record as “approximately 100 fold”. Moreover, the “activity on the human V1a receptor” value at human V1a receptor is listed as “active”.
